Here are results for 11 compounds from patent publication US12365687B2 (Hoffmann-La Roche Inc., priority 2021, dated 2025).

Some results are limits rather than exact numbers.

Usually Ki stands for a dissociation constant, usually derived from enzyme kinetics or from competition with a known ligand. Higher therefore signals a looser hold on the target.

In assay [1] the target is human GABAA α5β2γ1 receptor (Homo sapiens (Human), UniProt P31644+Q8N1C3). As to the kind of experiment: Radioligand binding assay for γ1-containing GABAA subtypes, [3H]RO7239181 competition (α5β2γ1).
Assay [2] concerns the target human GABAA α2β2γ1 receptor (Homo sapiens (Human), UniProt P47869+Q8N1C3). As to the kind of experiment: Radioligand binding assay for γ1-containing GABAA subtypes, [3H]RO7239181 competition (α2β2γ1).
The target in assay [3] is human GABAA α1β3γ2 receptor (Homo sapiens (Human), UniProt P14867+P18507). Briefly: Radioligand binding assay for γ2-containing GABAA subtypes, [3H]Flumazenil competition (α1β3γ2). The conditions noted are these: for γ2/γ1 Selectivity Ratio: Ki α1β3γ2 (nM)/Ki α2β2γ1 (nM); for LogSel: Log[Ki α1β3γ2 (nM)/Ki α2β2γ1 (nM)].
Assay [4] concerns the target α2β2γ1 GABAA receptor subtype (Homo sapiens (Human), UniProt P47869+Q8N1C3). Briefly: Two-electrode voltage clamp electrophysiology in Xenopus oocytes expressing GABAA receptors (modulation of GABA EC20 current). It is filed as cell-based. Particulars: for Efficacy (GABA)%: % modulation of GABA EC20 = 100*(Fold increase-1), α2β2γ1 oocytes, compound at approx. 30-fold Ki; for Fold increase h-GABA-A α2β2γ1 oocyte @ 30-fold Ki: Xenopus oocytes expressing α2β2γ1, compound at approx. 30-fold its Ki α2β2γ1, GABA EC20 current. The essentials:
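Each concentration was tested on ≥3 oocytes held at −80 mV at room temperature, recorded 3-5 days post-injection. A control and a test response to EC20 GABA (1.5 min each) were superimposed and their point-by-point ratio taken. Peak ratio reported as % modulation of GABA EC20 = 100×(fold increase−1).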

The mark [5] stands for this setting: Ki h-GABAA α2β2γ1, [3H]RO7239181 competition binding, human GABAA α2β2γ1.
The mark [6] stands for this setting: Ki h-GABAA α2β2γ1, displacement of [3H]RO7239181, membranes of HEK293F cells expressing human receptors, means of two determinations.

For the compound `C[C@@H]1N=C(c2c(F)cccc2F)c2c(ccc(C(F)(F)F)c2Cl)-n2nc(NC(=O)N3CCS(=O)(=O)CC3)nc21` [Example 131, N-[(4S)-7-chloro-6-(2,6-difluorophenyl)-4-methyl-8-(trifluoromethyl)-4H-[1,2,4]triazolo[1,5-a][1,4]benzodiazepin-2-yl]-1,1-dioxo-1,4-thiazinane-4-carboxamide], the Ki came to 3.38 nM in assay [1], 13.8 nM in assay [2] (setting [5]), 13.8 nM in assay [2] (setting [6]) and 2430 nM in assay [3]. The “γ2/γ1 Selectivity Ratio” value in assay [3] amounted to 176.5. Besides, in assay [3], the LogSel is reported as 2.25. Moreover, in assay [4], the “Efficacy (GABA)%” value stood at 104%. Besides, in assay [4], the “Fold increase h-GABA-A α2β2γ1 oocyte @ 30-fold Ki” value stood at 2.04.
In assay [1], `C[C@@H]1N=C(c2ncccc2F)c2c(ccc(Cl)c2Cl)-n2nc(C(=O)N3CC[C@H](F)C3)nc21` [Example 79, [(4S)-7,8-dichloro-6-(3-fluoro-2-pyridyl)-4-methyl-4H-[1,2,4]triazolo[1,5-a][1,4]benzodiazepin-2-yl]-[(3S)-3-fluoropyrrolidin-1-yl]methanone] yielded a Ki of 7.8 nM. Moreover, in assay [2] (setting [5]), the Ki was found to be 48.4 nM. The same compound had a Ki in assay [2] (setting [6]) of 48.4 nM. For the same compound, in assay [3], the Ki was determined as 3720 nM, the “γ2/γ1 Selectivity Ratio” value came out at 76.8 and the LogSel was 1.89. In assay [4], the “Efficacy (GABA)%” value worked out at 129% and the “Fold increase h-GABA-A α2β2γ1 oocyte @ 30-fold Ki” value came out at 2.29.
Compound `C[C@@H]1N=C(c2ncccc2F)c2c(ccc(C(F)(F)F)c2Cl)-n2nc(C(=O)N3CC[C@H](F)C3)nc21` [Example 123, [(4S)-7-chloro-6-(3-fluoro-2-pyridyl)-4-methyl-8-(trifluoromethyl)-4H-[1,2,4]triazolo[1,5-a][1,4]benzodiazepin-2-yl]-[(3S)-3-fluoropyrrolidin-1-yl]methanone] yielded a Ki in assay [1] of 9.75 nM. This compound yielded a Ki in assay [2] (setting [5]) of 91.8 nM. This compound also displayed a Ki in assay [2] (setting [6]) of 91.9 nM. In assay [3], the Ki was > 30000 nM, the “γ2/γ1 Selectivity Ratio” value is 326.6 and the LogSel came out at 2.51. In addition, in assay [4], the “Efficacy (GABA)%” value was determined as 162% and the “Fold increase h-GABA-A α2β2γ1 oocyte @ 30-fold Ki” value turned out to be 2.62.
As for `C[C@@H]1N=C(c2c(F)cccc2F)c2c(ccc(Cl)c2Cl)-n2nc(C(=O)NC3(C#N)CC3)nc21` [Example 61, (4S)-7,8-dichloro-N-(1-cyanocyclopropyl)-6-(2,6-difluorophenyl)-4-methyl-4H-[1,2,4]triazolo[1,5-a][1,4]benzodiazepine-2-carboxamide], the Ki in assay [1] was 1.45 nM. This compound registered a Ki in assay [2] (setting [5]) of 4.2 nM. In assay [2] (setting [6]), this compound displayed a Ki of 4.18 nM. Besides, in assay [3], the affinity, expressed as Ki, was 585 nM; the “γ2/γ1 Selectivity Ratio” value is 140.0; the LogSel is 2.15. In assay [4], the “Efficacy (GABA)%” value is given as 99% and the “Fold increase h-GABA-A α2β2γ1 oocyte @ 30-fold Ki” value was determined as 1.99.
Turning to `C[C@@H]1N=C(c2ncccc2F)c2c(ccc(Cl)c2Cl)-n2nc(C(=O)N3CC4(COC4)C3)nc21` [Example 102, [(4S)-7,8-dichloro-6-(3-fluoro-2-pyridyl)-4-methyl-4H-[1,2,4]triazolo[1,5-a][1,4]benzodiazepin-2-yl]-(2-oxa-6-azaspiro[3.3]heptan-6-yl)methanone], in assay [1], the Ki is 6.83 nM. This compound came in with a Ki in assay [2] (setting [5]) of 51.5 nM. The compound also came in with a Ki in assay [2] (setting [6]) of 51.5 nM. Besides, in assay [3], the Ki came out at 7250 nM, the “γ2/γ1 Selectivity Ratio” value was found to be 140.7 and the LogSel was found to be 2.15. Further, in assay [4], the “Efficacy (GABA)%” value was determined as 143% and the “Fold increase h-GABA-A α2β2γ1 oocyte @ 30-fold Ki” value came to 2.43.
On to `C[C@@H]1N=C(c2c(F)cccc2F)c2c(ccc(C(F)(F)F)c2Cl)-n2ccnc21` [Example 150, (4S)-7-chloro-6-(2,6-difluorophenyl)-4-methyl-8-(trifluoromethyl)-4H-imidazo[1,2-a][1,4]benzodiazepine], for which the Ki in assay [1] was found to be 1.33 nM; in assay [2] (setting [5]), 7.3 nM; in assay [2] (setting [6]), 7.3 nM; in assay [3], 758 nM. The “γ2/γ1 Selectivity Ratio” value in assay [3] is reported as 103.2. Further, the “Efficacy (GABA)%” value in assay [4] was 70%.
As for `C[C@@H]1N=C(c2c(F)cccc2F)c2c(ccc(Cl)c2Cl)-n2nc(C(=O)N3CC[C@H](F)C3)nc21` [Example 80, [(4S)-7,8-dichloro-6-(2,6-difluorophenyl)-4-methyl-4H-[1,2,4]triazolo[1,5-a][1,4]benzodiazepin-2-yl]-[(3S)-3-fluoropyrrolidin-1-yl]methanone], the Ki in assay [1] is 1.9 nM. In assay [2] (setting [5]), this compound gave a Ki of 14.3 nM. The Ki in assay [2] (setting [6]) is 14.3 nM. In assay [3], the Ki worked out at 979 nM, the “γ2/γ1 Selectivity Ratio” value came out at 68.5 and the LogSel worked out at 1.84. In assay [4], the “Efficacy (GABA)%” value is recorded as 89% and the “Fold increase h-GABA-A α2β2γ1 oocyte @ 30-fold Ki” value turned out to be 1.89.
Take `C[C@@H]1N=C(c2c(F)cccc2F)c2c(ccc(Cl)c2Cl)-n2nc(C(=O)N3CC4(CCCO4)C3)nc21` [Example 108, [(4S)-7,8-dichloro-6-(2,6-difluorophenyl)-4-methyl-4H-[1,2,4]triazolo[1,5-a][1,4]benzodiazepin-2-yl]-(5-oxa-2-azaspiro[3.4]octan-2-yl)methanone]: the Ki worked out at 2.59 nM in assay [1], 3.9 nM in assay [2] (setting [5]), 3.92 nM in assay [2] (setting [6]) and 688 nM in assay [3]. In addition, the “γ2/γ1 Selectivity Ratio” value in assay [3] came to 175.8. For the same compound, the LogSel in assay [3] is 2.24. In addition, the “Efficacy (GABA)%” value in assay [4] turned out to be 46%. The “Fold increase h-GABA-A α2β2γ1 oocyte @ 30-fold Ki” value in assay [4] is 1.46.
As to `C[C@@H]1N=C(c2c(F)cccc2F)c2c(ccc(C(F)(F)F)c2Cl)-n2nc(NC(=O)NC3COC3)nc21` [Example 125, 1-[(4S)-7-chloro-6-(2,6-difluorophenyl)-4-methyl-8-(trifluoromethyl)-4H-[1,2,4]triazolo[1,5-a][1,4]benzodiazepin-2-yl]-3-(oxetan-3-yl)urea], the Ki in assay [1] was 1.7 nM; in assay [2] (setting [5]), 6.2 nM; in assay [2] (setting [6]), 6.19 nM; in assay [3], 1600 nM. Besides, the “γ2/γ1 Selectivity Ratio” value in assay [3] amounted to 259.0. Moreover, in assay [3], the LogSel amounted to 2.41. Also, the “Efficacy (GABA)%” value in assay [4] came out at 73%. Besides, the “Fold increase h-GABA-A α2β2γ1 oocyte @ 30-fold Ki” value in assay [4] was determined as 1.73.
In assay [1], `CNS(=O)(=O)c1nc2n(n1)-c1ccc(Cl)c(Cl)c1C(c1c(F)cccc1F)=N[C@H]2C` [Example 73, (4S)-7,8-dichloro-6-(2,6-difluorophenyl)-N,4-dimethyl-4H-[1,2,4]triazolo[1,5-a][1,4]benzodiazepine-2-sulfonamide] returned a Ki of 2.97 nM. The same compound yielded a Ki in assay [2] (setting [5]) of 49.1 nM. The same compound displayed a Ki in assay [2] (setting [6]) of 49.1 nM. Besides, in assay [3], affinity was put at a Ki of 2170 nM, the “γ2/γ1 Selectivity Ratio” value was 44.1 and the LogSel is 1.64. Besides, in assay [4], the “Efficacy (GABA)%” value is given as 58% and the “Fold increase h-GABA-A α2β2γ1 oocyte @ 30-fold Ki” value worked out at 1.58.
`C[C@@H]1N=C(c2ncccc2F)c2c(ccc(C(F)(F)F)c2Cl)-n2cc(C(=O)N3CC(F)C3)nc21` [Example 161, (3-fluoroazetidin-1-yl)-[(4S)-7-chloro-6-(3-fluoro-2-pyridyl)-4-methyl-8-(trifluoromethyl)-4H-imidazo[1,2-a][1,4]benzodiazepin-2-yl]methanone] yielded a Ki in assay [1] of 21.3 nM. The compound also showed a Ki in assay [2] (setting [5]) of 72.8 nM. In assay [2] (setting [6]), this compound gave a Ki of 72.7 nM. In assay [3], the Ki was > 30000 nM, the “γ2/γ1 Selectivity Ratio” value is 412.4 and the LogSel was 2.62. In addition, in assay [4], the “Efficacy (GABA)%” value is 165% and the “Fold increase h-GABA-A α2β2γ1 oocyte @ 30-fold Ki” value was found to be 2.65.
